Biological target: T1, NAD-dependent protein deacetylase sirtuin-1 (Homo sapiens) (UniProt Q96EB6)
T1 sequence (whole entry): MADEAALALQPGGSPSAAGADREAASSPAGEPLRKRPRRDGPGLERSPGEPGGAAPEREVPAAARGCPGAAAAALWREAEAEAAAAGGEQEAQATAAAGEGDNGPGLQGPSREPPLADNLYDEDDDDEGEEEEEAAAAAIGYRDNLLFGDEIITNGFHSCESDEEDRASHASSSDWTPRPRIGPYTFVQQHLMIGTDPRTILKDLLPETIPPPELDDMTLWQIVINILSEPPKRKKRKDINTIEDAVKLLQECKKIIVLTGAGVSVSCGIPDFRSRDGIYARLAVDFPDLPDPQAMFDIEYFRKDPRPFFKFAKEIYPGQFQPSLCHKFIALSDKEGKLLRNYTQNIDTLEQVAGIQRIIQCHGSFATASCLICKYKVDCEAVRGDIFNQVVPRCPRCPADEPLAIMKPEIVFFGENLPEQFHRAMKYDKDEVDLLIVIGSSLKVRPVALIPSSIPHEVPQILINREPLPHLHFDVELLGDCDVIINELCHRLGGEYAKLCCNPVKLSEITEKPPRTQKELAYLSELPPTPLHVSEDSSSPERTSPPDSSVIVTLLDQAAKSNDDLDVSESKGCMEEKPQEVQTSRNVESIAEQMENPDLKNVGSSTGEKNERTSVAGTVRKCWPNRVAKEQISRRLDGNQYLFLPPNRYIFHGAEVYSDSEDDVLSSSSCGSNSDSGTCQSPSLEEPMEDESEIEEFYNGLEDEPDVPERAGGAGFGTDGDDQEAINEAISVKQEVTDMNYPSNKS
Conditions: Sf9

NC(=O)[C@@H]1CCCc2c1[nH]c1ccc(Cl)cc21
ΔTm: 10 °C

NC(=O)[C@@H]1CCCCc2c1[nH]c1ccc(Cl)cc21
ΔTm: 10 °C
